Measurements: PMC10584170, “Machine learning-based phenotypic imaging to characterise the targetable biology of Plasmodium falciparum male gametocytes for the development of transmission-blocking antimalarials” (PLOS Pathogens, 2023)
Where two headings read alike, the source gives them in different places.

Assays:
[1] = system: P. falciparum male gametocytes; experiment: P. falciparum Dual Gamete Formation Assay (PfDGFA), male readout (exflagellation); format: cell-based, Plasmodium falciparum NF54; conditions: for Selectivity Ratio M: HepG2 Tox50 versus male IC50; for IC50: PfDGFA, 24 h incubation with gametocytes before induction, exflagellation readout, read-out: Male IC50; for HitlevelM: number of replicates with >50% inhibition in the male readout
Outline: (§1)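 First, day-14 P. falciparum NF54 gametocytes receive compound for 24 h at 37°C in 1% O2/3% CO2. Next, ookinete medium with Cy3 anti-Pfs25 triggers gametogenesis at 28°C and male exflagellation is imaged. Finally, after 24 h in the dark, Cy3-labelled females are imaged.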

[2] = system: P. falciparum female gametocytes; experiment: P. falciparum Dual Gamete Formation Assay (PfDGFA), female readout (Pfs25-positive female gametes); format: cell-based, Plasmodium falciparum NF54; conditions: for Selectivity ratio F: HepG2 Tox50 versus female IC50; for IC50: PfDGFA, 24 h incubation with gametocytes before induction, female gamete readout, read-out: Female IC50; for HitlevelF: number of replicates with >50% inhibition in the female readout
Outline: as §1

HepG2 cells = experiment: HepG2 cytotoxicity counter-screen; conditions: cytotoxic activity against HepG2 cells
[3] = 2µM, 24h preincubation with gametocytes, average of replicates
[4] = 2µM, 24h preincubation with gametocytes, replicate R1
[5] = 2µM, 24h preincubation with gametocytes, replicate R3
[6] = 2µM, 24h preincubation with gametocytes, replicate R4
[7] = 2µM, 24h preincubation with gametocytes prior to induction of gametogenesis, average of replicates
[8] = 2µM, 24h preincubation with gametocytes prior to induction of gametogenesis, replicate R1
[9] = 2µM, 24h preincubation with gametocytes prior to induction of gametogenesis, replicate R3
[10] = 2µM, 24h preincubation with gametocytes prior to induction of gametogenesis, replicate R4
[11] = Plasmodium falciparum, 2µM, 24h preincubation with gametocytes, average of replicates, read-out: Average inhibition male (%)
[12] = Plasmodium falciparum, 2µM, 24h preincubation with gametocytes, replicate R1, read-out: % inhibition male (individual replicates) R1
[13] = Plasmodium falciparum, 2µM, 24h preincubation with gametocytes, replicate R2, read-out: % inhibition male (individual replicates) R2
[14] = Plasmodium falciparum, 2µM, 24h preincubation with gametocytes, replicate R3, read-out: % inhibition male (individual replicates) R3
[15] = Plasmodium falciparum, 2µM, 24h preincubation with gametocytes, replicate R4, read-out: % inhibition male (individual replicates) R4
[16] = Plasmodium falciparum, 2µM, 24h preincubation with gametocytes, average of replicates, read-out: Average inhibition female (%)
[17] = Plasmodium falciparum, 2µM, 24h preincubation with gametocytes, replicate R1, read-out: % inhibition female (individual replicates) R1
[18] = Plasmodium falciparum, 2µM, 24h preincubation with gametocytes, replicate R2, read-out: % inhibition female (individual replicates) R2
[19] = Plasmodium falciparum, 2µM, 24h preincubation with gametocytes, replicate R3, read-out: % inhibition female (individual replicates) R3
[20] = Plasmodium falciparum, 2µM, 24h preincubation with gametocytes, replicate R4, read-out: % inhibition female (individual replicates) R4
[21] = PfDGFA at 2µM, 24h preincubation with gametocytes, average of replicates
[22] = PfDGFA at 2µM, 24h preincubation with gametocytes, replicate R1
[23] = PfDGFA at 2µM, 24h preincubation with gametocytes, replicate R3
[24] = PfDGFA at 2µM, 24h preincubation with gametocytes, replicate R4

| IC50 [1] | IC50 [2] | IC50 ([1]; Plasmodium falciparum) | IC50 ([2]; Plasmodium falciparum) | SMILES | Average inhibition male (%) [1, 3] | % inhibition male (individual replicates) R1 [1, 4] | % inhibition male (individual replicates) R3 [1, 5] | % inhibition male (individual replicates) R4 [1, 6] | Selectivity Ratio M [1] | Average inhibition female (%) [2, 3] | % inhibition female (individual replicates) R1 [2, 4] | % inhibition female (individual replicates) R3 [2, 5] | % inhibition female (individual replicates) R4 [2, 6] | Selectivity ratio F [2] | Tox50 (HepG2 cells) | inhibition at 2 µM [1, 11] | inhibition at 2 µM [1, 12] | inhibition at 2 µM [1, 13] | inhibition at 2 µM [1, 15] | inhibition at 2 µM [2, 16] | other results |
| --- | --- | --- | --- | --- | --- | --- | --- | --- | --- | --- | --- | --- | --- | --- | --- | --- | --- | --- | --- | --- | --- |
| 0.61 µM | 0.61 µM |  |  | COc1cc2nc(N3CCC(CNC(=O)c4ccc(-c5ccc(-c6noc(C)n6)cc5)cc4)CC3)nc(N)c2cc1OC [TCMDC-138754] | 99.2% | 101.8% | 98.0% | 96.9% | 6 | 48.8% | 31.8% | 47.5% | 53.9% | 6.02 | 3.68 µM |  |  |  |  |  |  |
| 0.22 µM | 0.23 µM |  |  | COc1cc2nc(N3CCC(CNCc4ccc(-c5ccc(C(F)(F)F)cc5)cc4)CC3)nc(N)c2cc1OC [TCMDC-138757] | 97.9% | 97.9% | 96.8% | 99.6% | 9.29 | 59.1% | 32.6% | 30.7% | 89.8% | 8.75 | 2.05 µM |  |  |  |  |  |  |
| 1.19 µM | 1.74 µM |  |  | Cl.Clc1ccc(OCCC2CCN(CCCCCCCN3CCC(CCOc4ccc(Cl)c(Cl)c4)CC3)CC2)cc1Cl [TCMDC-138967] | 95.6% | 93.1% | 96.8% | 99.1% | 2.82 | 87.8% | 88.3% | 97.6% | 78.8% | 1.93 | 3.36 µM |  |  |  |  |  |  |
| 0.9 µM | 1.33 µM |  |  | COc1ccc(NC(=O)c2ccc(OCCCCCCCOc3ccc(C(=O)Nc4ccc(OC)c(N5CCN(C)CC5)c4)cc3)cc2)cc1N1CCN(C)CC1.O=C(O)C(=O)O [TCMDC-139007] | 92.9% | 92.7% | 82.0% | 95.6% | 4.37 | 47.5% | 33.2% | 33.3% | 62.1% | 2.96 | 3.94 µM |  |  |  |  |  |  |
| 1.98 µM | 1.83 µM |  |  | COc1ccc(NC(=O)c2cccc(Br)c2)cc1N1CCN(CCCCCCCN2CCN(c3cc(NC(=O)c4cccc(Br)c4)ccc3OC)CC2)CC1.Cl [TCMDC-139020] |  |  |  |  | 4 |  |  |  |  | 4.34 | 7.95 µM |  |  |  |  |  | Average inhibition male (%) [1, 7]: 30.8%; % inhibition male (individual replicates) R1 [1, 8]: 35.3%; % inhibition male (individual replicates) R3 [1, 9]: 36.0%; % inhibition male (individual replicates) R4 [1, 10]: 43.4%; HitlevelM ([1]; 2µM, 24h preincubation): 0; Average inhibition female (%) [2, 7]: 52.2%; % inhibition female (individual replicates) R1 [2, 8]: 51.4%; % inhibition female (individual replicates) R3 [2, 9]: 52.5%; % inhibition female (individual replicates) R4 [2, 10]: 56.9%; HitlevelF ([2]; 2µM, 24h preincubation): 3 |
|  |  | 1.85 µM | 1.3 µM | COc1cccc(C23NC(=Nc4nc5ccccc5[nH]4)NC2(c2cccc(OC)c2)NC(=Nc2nc4ccccc4[nH]2)N3)c1 (centres unmarked) [TCMDC-139087] |  |  |  |  | 17.52 |  |  |  |  | 24.94 | 32.37 µM |  |  |  |  |  | inhibition at 2 µM ([1]; Plasmodium falciparum, PfDGFA at 2µM, 24h preincubation with gametocytes, average of replicates, read-out: Average inhibition male (%)): 78.4%; inhibition at 2 µM ([1]; Plasmodium falciparum, PfDGFA at 2µM, 24h preincubation with gametocytes, replicate R1, read-out: % inhibition male (individual replicates) R1): 83%; inhibition at 2 µM ([1]; Plasmodium falciparum, PfDGFA at 2µM, 24h preincubation with gametocytes, replicate R2, read-out: % inhibition male (individual replicates) R2): 72.6%; inhibition at 2 µM ([1]; Plasmodium falciparum, PfDGFA at 2µM, 24h preincubation with gametocytes, replicate R3, read-out: % inhibition male (individual replicates) R3): 79%; inhibition at 2 µM ([1]; Plasmodium falciparum, PfDGFA at 2µM, 24h preincubation with gametocytes, replicate R4, read-out: % inhibition male (individual replicates) R4): 78.9%; HitlevelM ([1]; 2µM): 4; inhibition at 2 µM ([2]; Plasmodium falciparum, PfDGFA at 2µM, 24h preincubation with gametocytes, average of replicates, read-out: Average inhibition female (%)): 28.9%; inhibition at 2 µM ([2]; Plasmodium falciparum, PfDGFA at 2µM, 24h preincubation with gametocytes, replicate R1, read-out: % inhibition female (individual replicates) R1): 18.4%; inhibition at 2 µM ([2]; Plasmodium falciparum, PfDGFA at 2µM, 24h preincubation with gametocytes, replicate R2, read-out: % inhibition female (individual replicates) R2): 40.4%; inhibition at 2 µM ([2]; Plasmodium falciparum, PfDGFA at 2µM, 24h preincubation with gametocytes, replicate R3, read-out: % inhibition female (individual replicates) R3): 9.2%; inhibition at 2 µM ([2]; Plasmodium falciparum, PfDGFA at 2µM, 24h preincubation with gametocytes, replicate R4, read-out: % inhibition female (individual replicates) R4): 47.7%; HitlevelF ([2]; 2µM): 0 |
|  |  | 0.95 µM | 1.02 µM | c1ccc(-c2nc(Nc3nc4ccccc4[nH]3)[nH]c2-c2ccccc2)cc1 [TCMDC-139099] |  |  |  |  | 17.05 |  |  |  |  | 15.94 | 16.22 µM | 97.9% | 97.5% | 98.5% | 98.9% | 58.5% | inhibition at 2 µM [1, 14]: 96.8%; inhibition at 2 µM [2, 17]: 38.7%; inhibition at 2 µM [2, 18]: 75.2%; inhibition at 2 µM [2, 19]: 46.9%; inhibition at 2 µM [2, 20]: 73.1% |
|  |  | 0.3 µM | 0.3 µM | Br.c1cc(Nc2nc(-c3ccc(-c4csc(Nc5ccncc5)n4)cc3)cs2)ccn1 [TCMDC-139725] |  |  |  |  | 15.17 |  |  |  |  | 15.01 | 4.53 µM | 95.5% | 101% | 98.4% | 91.8% | 92.1% | inhibition at 2 µM [1, 14]: 91.3%; inhibition at 2 µM [2, 17]: 90.8%; inhibition at 2 µM [2, 18]: 87.3%; inhibition at 2 µM [2, 19]: 93.4%; inhibition at 2 µM [2, 20]: 96.9% |
|  |  | 1.7 µM | 5.92 µM | CN(C)c1ccnc2ccc(NC(=O)Nc3ccnc4ccccc34)cc12 [TCMDC-139749] |  |  |  |  | 13.31 |  |  |  |  | 3.83 | 22.68 µM | 96.1% | 97.3% | 94.7% | 96.1% | 29.2% | inhibition at 2 µM [2, 17]: 32.7%; inhibition at 2 µM [2, 18]: 28.8%; inhibition at 2 µM [2, 19]: 22.7%; inhibition at 2 µM [2, 20]: 32.6% |
| 1.58 µM | 1.25 µM |  |  | CC(Cc1ccc(C(=O)Nc2ccc(CC(C)NCCc3cccc(Cl)c3)cc2)cc1)NCCc1ccc(C(F)(F)F)cc1 (centres unmarked) [TCMDC-139790] |  |  |  |  | 2.39 |  |  |  |  | 3.01 | 3.76 µM |  |  |  |  |  | Average inhibition male (%) [1, 21]: 83.5%; % inhibition male (individual replicates) R1 [1, 22]: 92.2%; % inhibition male (individual replicates) R3 [1, 23]: 51.0%; % inhibition male (individual replicates) R4 [1, 24]: 92.9%; HitlevelM ([1]; 2µM): 4; Average inhibition female (%) [2, 21]: 37.4%; % inhibition female (individual replicates) R1 [2, 22]: 27.8%; % inhibition female (individual replicates) R3 [2, 23]: 24.4%; % inhibition female (individual replicates) R4 [2, 24]: 27.0%; HitlevelF ([2]; 2µM): 1 |

| SMILES | IC50 [1] | IC50 [2] | IC50 ([1]; Plasmodium falciparum) | IC50 ([2]; Plasmodium falciparum) | Average inhibition male (%) [1, 3] | % inhibition male (individual replicates) R1 [1, 4] | % inhibition male (individual replicates) R3 [1, 5] | % inhibition male (individual replicates) R4 [1, 6] | Selectivity Ratio M [1] | Average inhibition female (%) [2, 3] | % inhibition female (individual replicates) R1 [2, 4] | % inhibition female (individual replicates) R3 [2, 5] | % inhibition female (individual replicates) R4 [2, 6] | Selectivity ratio F [2] | Tox50 (HepG2 cells) | inhibition at 2 µM [1, 11] | inhibition at 2 µM [1, 12] | inhibition at 2 µM [1, 13] | inhibition at 2 µM [1, 15] | inhibition at 2 µM [2, 16] | other results |
| --- | --- | --- | --- | --- | --- | --- | --- | --- | --- | --- | --- | --- | --- | --- | --- | --- | --- | --- | --- | --- | --- |
| COc1ccc2nc(N=C3NC4(c5ccccc5)NC(=Nc5nc6ccc(OC)cc6[nH]5)NC4(c4ccccc4)N3)[nH]c2c1.O=C(O)C(F)(F)F (centres unmarked) [TCMDC-139632] |  |  | 1.16 µM | 5.84 µM |  |  |  |  | 29.01 |  |  |  |  | 5.74 | 33.52 µM | 94.4% | 95.5% | 96.3% | 90.9% | 18.9% | inhibition at 2 µM [1, 14]: 95.1%; inhibition at 2 µM [2, 17]: 23.3%; inhibition at 2 µM [2, 18]: 24.8%; inhibition at 2 µM [2, 19]: 10.6%; inhibition at 2 µM [2, 20]: 17.1% |
